Experimental data from publication PMC7815789, “Degradation of complex arabinoxylans by human colonic Bacteroidetes” (Nature Communications, 2021).

Key:
Type in all cases: biochemical
[1] = molecular target: T1, BACINT_01038-CE6/CE1 (Bi1038-CE6/CE1) (Bacteroides intestinalis, UniProt B3C974); assay: pNP release at […] nm; settings: […] substrate, […] enzyme, […] MOPS pH […] °C
T1 construct: two modules (CE6, CE1)

[2] = molecular target: T2, BACINT_01039-CE1 (Bi1039-CE1) (Bacteroides intestinalis, UniProt B3C975); assay: pNP release at […] nm; settings: 1 mM substrate, 50 nM enzyme, 0.1 M MOPS pH 7.5, 37 °C
T2 construct: dimer; crystal structure residues 25-382, esterase domain 126-382

[3] = molecular target: T3, BACINT_01042-GH3 (Bi1042-GH3) (Bacteroides intestinalis, UniProt B3C978); assay: xylose release, HPAEC-PAD; settings: pH […] °C, […] h, […] enzyme
T3 sequence (B3C978 19-862): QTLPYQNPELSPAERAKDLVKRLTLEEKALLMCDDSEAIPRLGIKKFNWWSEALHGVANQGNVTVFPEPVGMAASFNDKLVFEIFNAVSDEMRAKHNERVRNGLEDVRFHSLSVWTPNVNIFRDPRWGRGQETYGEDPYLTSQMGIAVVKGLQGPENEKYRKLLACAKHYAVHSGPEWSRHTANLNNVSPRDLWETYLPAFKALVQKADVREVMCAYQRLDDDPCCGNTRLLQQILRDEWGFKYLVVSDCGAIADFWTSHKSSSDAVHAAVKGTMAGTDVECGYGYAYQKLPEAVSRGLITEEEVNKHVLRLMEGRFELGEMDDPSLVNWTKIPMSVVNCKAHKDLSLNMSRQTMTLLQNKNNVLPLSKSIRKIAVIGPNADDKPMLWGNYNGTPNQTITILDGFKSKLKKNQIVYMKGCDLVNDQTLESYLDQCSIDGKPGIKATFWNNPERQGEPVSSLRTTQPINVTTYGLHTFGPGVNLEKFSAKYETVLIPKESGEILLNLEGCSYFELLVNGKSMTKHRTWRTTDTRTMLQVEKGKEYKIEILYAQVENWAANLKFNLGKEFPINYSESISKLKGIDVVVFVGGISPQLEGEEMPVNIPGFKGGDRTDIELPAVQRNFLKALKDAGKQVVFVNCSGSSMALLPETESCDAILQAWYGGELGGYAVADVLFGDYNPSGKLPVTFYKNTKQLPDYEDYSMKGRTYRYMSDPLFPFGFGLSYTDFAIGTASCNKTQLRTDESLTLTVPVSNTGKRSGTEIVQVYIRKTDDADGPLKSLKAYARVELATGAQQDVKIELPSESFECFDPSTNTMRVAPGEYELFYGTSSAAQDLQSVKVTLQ

[4] = molecular target: T4, BACINT_01033-CE1 (Bi1033-CE1) (Bacteroides intestinalis, UniProt B3C969); assay: ferulic acid release, HPLC-DAD; settings: 200 uM substrate, 50 nM enzyme, 50 mM sodium citrate, 150 mM NaCl, pH 6.5, 37 °C, 10 min
T4 construct: dimer; N-terminal Ig-like domain, esterase domain residues 126-383

[5] = molecular target: T1, BACINT_01038-CE6/CE1 (Bi1038-CE6/CE1); assay: ferulic acid release, HPLC-DAD; settings: […] substrate, […] enzyme, […] sodium citrate, […] NaCl, pH […] °C, […] min

T1 sequence (B3C974 59-680): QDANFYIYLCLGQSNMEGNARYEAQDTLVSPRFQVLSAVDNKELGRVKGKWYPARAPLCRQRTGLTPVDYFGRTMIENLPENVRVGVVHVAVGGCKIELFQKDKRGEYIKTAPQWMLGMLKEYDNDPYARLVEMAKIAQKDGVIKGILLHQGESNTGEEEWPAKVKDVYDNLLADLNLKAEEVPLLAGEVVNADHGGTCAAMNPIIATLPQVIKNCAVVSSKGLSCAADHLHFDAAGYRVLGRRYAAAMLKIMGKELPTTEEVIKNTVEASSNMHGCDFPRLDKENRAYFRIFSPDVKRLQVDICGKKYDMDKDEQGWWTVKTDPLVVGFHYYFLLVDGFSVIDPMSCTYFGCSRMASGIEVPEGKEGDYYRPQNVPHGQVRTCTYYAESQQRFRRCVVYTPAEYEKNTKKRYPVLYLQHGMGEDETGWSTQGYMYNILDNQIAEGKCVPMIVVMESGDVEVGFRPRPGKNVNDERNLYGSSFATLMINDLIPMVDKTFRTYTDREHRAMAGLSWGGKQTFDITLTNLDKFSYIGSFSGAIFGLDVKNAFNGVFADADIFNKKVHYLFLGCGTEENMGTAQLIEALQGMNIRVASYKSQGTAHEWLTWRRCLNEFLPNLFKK
T2 sequence (B3C975 25-382): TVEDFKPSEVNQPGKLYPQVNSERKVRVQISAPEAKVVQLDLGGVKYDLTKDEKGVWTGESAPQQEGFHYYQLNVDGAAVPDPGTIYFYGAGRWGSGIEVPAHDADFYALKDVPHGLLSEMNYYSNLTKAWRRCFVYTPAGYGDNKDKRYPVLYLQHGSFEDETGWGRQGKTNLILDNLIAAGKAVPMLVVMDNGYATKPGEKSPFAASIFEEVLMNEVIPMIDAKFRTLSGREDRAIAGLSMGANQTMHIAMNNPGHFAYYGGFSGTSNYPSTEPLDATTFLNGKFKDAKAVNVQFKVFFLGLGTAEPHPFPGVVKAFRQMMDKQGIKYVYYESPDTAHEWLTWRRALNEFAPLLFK
T4 sequence (B3C969 24-387): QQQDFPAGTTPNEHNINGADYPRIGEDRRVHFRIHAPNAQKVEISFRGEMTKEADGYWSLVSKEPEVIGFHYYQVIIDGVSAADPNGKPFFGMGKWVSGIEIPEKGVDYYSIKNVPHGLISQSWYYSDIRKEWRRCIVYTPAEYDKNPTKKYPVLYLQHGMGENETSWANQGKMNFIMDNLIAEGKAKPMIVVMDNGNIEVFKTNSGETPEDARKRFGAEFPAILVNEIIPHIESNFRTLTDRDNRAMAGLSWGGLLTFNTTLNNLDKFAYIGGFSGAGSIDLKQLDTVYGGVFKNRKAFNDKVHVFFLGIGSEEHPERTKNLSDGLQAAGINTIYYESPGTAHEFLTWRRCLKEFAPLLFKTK

Compound: CC(=O)Oc1ccc([N+](=O)[O-])cc1 [pNP acetate]
- pNP release at 400 nm [1]: activities on the synthetic substrates were from Bi1040-FAE and Bi1038-CE6/CE1, respectively
- pNP release at 400 nm [2]: activity of the wild-type Bi1039-CE1, observed with pNP acetate as the substrate

Compound: OC1OC[C@@H](O[C@@H]2OC[C@@H](O[C@@H]3OC[C@@H](O)[C@H](O)[C@H]3O)[C@H](O)[C@H]2O)[C@H](O)[C@H]1O (stereo partly drawn) [X3, xylotriose]
- xylose release, HPAEC-PAD [3]: Bi1042-GH3 cleaves xylo-oligosaccharides to xylose or X1

Compound: COc1cc(/C=C/C(=O)OC[C@@H]2OC(O)[C@H](O)[C@H]2O)ccc1O (stereo partly drawn) [FA, feruloylated monosaccharide (FA)]
- ferulic acid release, HPLC-DAD [4]: exhibits low ferulic acid cleavage activity on feruloylated monosaccharide (FA)

Compound: COc1cc(/C=C/C(=O)OC[C@@H]2O[C@@H](O[C@@H]3[C@@H](O)[C@H](O[C@@H]4COC(O)[C@H](O)[C@H]4O)OC[C@H]3O)[C@H](O)[C@H]2O)ccc1O (stereo partly drawn) [FAXX, feruloylated trisaccharide (FAXX)]
- ferulic acid release, HPLC-DAD [5]: showed some activity on both FA and FAXX

Compound: OC1OC[C@@H](O[C@@H]2OC[C@@H](O)[C@H](O)[C@H]2O)[C@H](O)[C@H]1O (stereo partly drawn) [X2, xylobiose]
- xylose release, HPAEC-PAD [3]: Bi1042-GH3 cleaves xylo-oligosaccharides to xylose or X1
